The test deals with male Wistar rats injected with beta-amyloid peptide 25-35 into NBM. To be noted: for Improvement in learning and memory as compared to control rats: 1 mg/kg for 7 days; for Latency (retention latency to enter dark compartment, mean±SD): 1 mg/kg succinic acid water solution once a day for 7 days from day 16 after beta-amyloid, retention trial 24 h after acquisition, cut-off 180 s, n=8. The protocol:
Beta-amyloid was administered bilaterally into NBM of male Wistar rats in dose of 2 μg per each side. On day 16th after the amyloid injection, rats received intranasally or intraperitoneally compositions comprising a water solution of 1 mg/kg of succinic acid for 7 days singly a day. Control rats received saline intranasally. On day next to the last day of the treatment, passive avoidance performance in rats was tested for two consecutive days. A two-compartment, step-through, passive avoidance apparatus consisting of illuminated (25×40×25 cm) and dark (25×40×25 cm) compartments attached to an electrified grid floor and separated by a guillotine door (8×8 cm) was used. In the acquisition trial, the rat was placed in the illuminated compartment in a position its tail directed to the closed door for 2 min to habituate to the apparatus. The guillotine door was opened and time to enter to dark compartment was recorded. When the rat entered to dark compartment completely (four foots in dark compartment), the guillotine door was closed and the rat was delivered an electrical shock of 0.8 mA for 3 sec through the grid floor. After the shock, the rat was immediately placed in home cage. In the retention trial, conducted 24 h after the acquisition trial, the rat was placed in the illuminated compartment and the retention latency to enter into the dark compartment was recorded until 180 s had elapsed. […] Data are presented as retention latency mean±SD (n=8).

Where two headings read alike, the source gives them in different places.

Turning to `O=C(O)CCC(=O)O` [Succinic acid], the “Improvement in learning and memory as compared to control rats” value is, setting by setting: (intranasally treated rats) “significant improvement in learning and memory”; (intraperitoneally treated rats) “do not”. Moreover, the “Latency (retention latency to enter dark compartment, mean±SD)” value is 87 ± 21 s (intranasally) and 43 ± 19 s (intraperitoneally).

The values above are taken from patent US20100160440A1, “INTRANASAL PHARMACEUTICAL COMPOSITIONS COMPRISING SUCCINIC ACID AND METHODS THEREOF” (priority 2007, published 2010).
